{
  "source": "patent US9827309B2",
  "about": "“Treating cancer with a combination of a PD-1 antagonist and dinaciclib” (Merck Sharp & Dohme Corp., priority 2013, dated 2017)",
  "origin": "cited, not measured here",
  "conditions": "clinical trials; cited from earlier work",
  "data": [
    {"smiles": "CCc1cnn2c(NCc3ccc[n+]([O-])c3)cc(N3CCCC[C@H]3CCO)nc12", "note": "[Dinaciclib, 1-[3-ethyl-7-[[(1-oxido-3-pyridinyl)methyl]amino]pyrazolo[1,5-a]pyrimidin-5-yl]-2(S)-piperidineethanol]", "values": [
      {"measurement": "most common dose-limiting toxicity", "value": "neutropenia"}
    ]}
  ]
}
